Experimental data: patent US12365674B2, “Inhibitors of histone deacetylase useful for the treatment or prevention of HIV infection” (Merck Sharp & Dohme LLC, priority 2019, dated 2025)

biological target: T1, HDAC6 (Homo sapiens, UniProt Q9UBN7); test: Human HDAC enzyme inhibitor Fluor-de-Lys assay, HDAC6; format: biochemical; conditions: 1.3 nM enzyme, 2.5 μM substrate BML-KI104, 3 h pre-incubation, 60 min reaction; read-out: HDAC6_IC50
T1 sequence (Q9UBN7 1-1215): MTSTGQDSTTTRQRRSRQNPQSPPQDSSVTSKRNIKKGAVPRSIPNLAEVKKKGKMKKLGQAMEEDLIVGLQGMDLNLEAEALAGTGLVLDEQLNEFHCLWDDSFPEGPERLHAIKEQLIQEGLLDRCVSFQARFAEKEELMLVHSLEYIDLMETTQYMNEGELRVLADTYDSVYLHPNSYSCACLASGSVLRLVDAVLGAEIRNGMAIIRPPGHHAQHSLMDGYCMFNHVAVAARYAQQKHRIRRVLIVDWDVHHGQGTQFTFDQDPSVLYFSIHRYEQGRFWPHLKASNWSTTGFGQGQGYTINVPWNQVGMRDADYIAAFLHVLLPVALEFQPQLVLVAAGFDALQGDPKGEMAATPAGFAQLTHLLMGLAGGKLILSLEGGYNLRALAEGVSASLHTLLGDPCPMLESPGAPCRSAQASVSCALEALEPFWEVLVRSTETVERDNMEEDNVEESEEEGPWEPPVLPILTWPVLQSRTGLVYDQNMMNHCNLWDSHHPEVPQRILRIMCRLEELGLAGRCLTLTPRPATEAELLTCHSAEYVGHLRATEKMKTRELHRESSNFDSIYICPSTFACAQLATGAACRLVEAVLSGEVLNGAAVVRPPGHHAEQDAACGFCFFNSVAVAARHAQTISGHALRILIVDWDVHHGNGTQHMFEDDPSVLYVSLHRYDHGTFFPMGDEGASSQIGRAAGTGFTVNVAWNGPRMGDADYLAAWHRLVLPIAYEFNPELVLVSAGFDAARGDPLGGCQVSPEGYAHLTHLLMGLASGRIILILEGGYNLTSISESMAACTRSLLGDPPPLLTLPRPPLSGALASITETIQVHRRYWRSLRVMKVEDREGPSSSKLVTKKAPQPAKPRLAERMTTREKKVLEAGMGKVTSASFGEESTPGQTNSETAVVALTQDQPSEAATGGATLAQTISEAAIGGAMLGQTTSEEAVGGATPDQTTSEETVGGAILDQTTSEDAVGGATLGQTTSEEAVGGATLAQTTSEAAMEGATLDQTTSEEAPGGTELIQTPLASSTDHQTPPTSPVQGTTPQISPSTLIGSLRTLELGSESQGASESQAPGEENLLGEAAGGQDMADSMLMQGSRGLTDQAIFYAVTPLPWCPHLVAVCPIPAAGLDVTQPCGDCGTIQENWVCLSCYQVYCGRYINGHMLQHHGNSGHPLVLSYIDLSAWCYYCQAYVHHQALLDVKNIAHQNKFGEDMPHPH
From the text: Recombinant human HDAC8 (catalog number BML-SE145-0100) and HDAC10 (catalog number BML-SE559-0050) enzymes, HDAC substrates BML-KI104 and BML-KI178, and HDAC developer solutions BML-KI105 and BML-KI176 were purchased from Enzo Life Sciences (Farmingdale, NY). Recombinant human HDAC5 and HDAC11 were purchased from BPS Bioscience (San Diego, CA)(catalog numbers 50045 and 50021). Substrate Boc-Lys(TFA)-AMC was obtained from Bachem (Bupendorf, Switzerland) (catalog number 1-1985). HDAC inhibitor suberoylanilide hydroxamic acid (SAHA) was obtained from Indofine (Hillsborough Township, NJ) and trichostatin A (TSA) was obtained from Sigma-Aldrich (St. Louis, MO). […] HEPES pH 8.0 was obtained from Boston BioProducts (Ashland, MA), Tween-20 from Fisher Scientific (Hampton, NH)(catalog number BP337), TCEP from Calbiochem and 7.5% bovine serum albumin (BSA) from Life Technologies (Carlsbad, CA) (catalog number 15260037). 384-well, black assay plates were obtained from Corning (Corning, NY) (catalog number 3575).
The histone deacetylase activities of HDAC1, HDAC2, HDAC3, HDAC6, and HDAC8 were measured in modified Fluor-de-Lys assays in 384-well format. In this assay, HDAC enzymes are initially incubated with an ε-acetyl (or -trifluoroacetyl)-L-lysine-containing substrate with a C-terminal amide having aminomethylcoumarin as the amine component. HDACs cleave the ε-acetyl group, rendering the resulting product susceptible to AMC cleavage by trypsin. The released AMC is then detected by its fluorescence.
The HDAC 1, 2 assays employed buffer A, which contained 20 mM HEPES, pH 8.0, 1 mM MgCl2, 137 mM NaCl, 2.7 mM KCl, 0.05% BSA. The HDAC3/SMRT assay employed buffer B, consisting of 20 mM HEPES, pH 8.0, 1 mM MgCl2, 50 mM NaCl, 2.7 mM KCl, 0.05% BSA, 0.005% Tween 20, and 10 μM IP4. The HDAC6 assay employed buffer C, consisting of 20 mM HEPES, pH 8.0, 1 mM MgCl2, 137 mM NaCl, 2.7 mM KCl, 0.5 mM TCEP (Calbiochem) and 0.05% BSA. The HDAC8 assay employed buffer D, consisting of 20 mM HEPES, pH 8.0, 1 mM MgCl2, 100 mM NaCl, 20 mM KCl, 0.1% n-octyl-β-D-glucoside (Anatrace, Maumee, OH) and 0.05% BSA. All steps were performed at room temperature (23° C.). The assay was performed by pre-incubating serial dilutions of test compounds with the target HDAC prior to initiation with substrate. Each compound was titrated in a 10-point dose response, using a 1:3 fold dilution scheme, with 0.15 ul of solution added by ECHO555 to the plate, followed by the addition of 20 μl of the appropriate HDAC isoform diluted in appropriate assay buffer. […] Final conditions used for each assay were: 1. HDAC 1, 0.3 nM total enzyme, 20 μM substrate BML-K1104; 2. HDAC 2, 1.5 nM total enzyme, 40 μM substrate BML-K1104; 3. HDAC 3/SMRT, 0.3 nM total enzyme, 20 μM substrate BML-K1104; 4. HDAC 6, 1.3 nM total enzyme, 2.5 μM substrate BML-K1104; 5. HDAC 8, 1.3 nM total enzyme, 200 μM substrate BML-K1178; the final high dose of test compound was 30 μM. For potent compounds, 900 nM was used as the final high dose. The reactions were stopped and developed by addition of 30 ul of HDAC developer solution containing a saturating level of HDAC inhibitor as follows: 1.

`COc1nc2ccccc2cc1-c1cnc([C@H](COCCCC(=O)c2ncco2)NC(=O)C23CCN(CC2)CC3)[nH]1` [Compound 12, N-{(1R)-1-[5-(2-methoxyquinolin-3-yl)-1H-imidazol-2-yl]-2-[4-(1,3-oxazol-2-yl)-4-oxobutoxy]ethyl}-1-azabicyclo[2.2.2]octane-4-carboxamide] and `CCC(=O)CCCOC[C@H](NC(=O)C12CCN(CC1)CC2)c1ncc(-c2cc3ccccc3nc2OC)[nH]1` [Compound 6, N-{(1R)-1-[5-(2-methoxyquinolin-3-yl)-1H-imidazol-2-yl]-2-[(4-oxohexyl)oxy]ethyl}-1-azabicyclo[2.2.2]octane-4-carboxamide] cannot be ordered by IC50: > 45 µM for the first, > 45 µM for the second.

`CN1CC(C(=O)N[C@@H](COCCCC(=O)c2ccon2)c2[nH]c(-c3ccc(F)cc3)nc2Cl)C1` [Compound 16, N-[(1R)-1-[4-chloro-2-(4-fluorophenyl)-1H-imidazol-5-yl]-2-(4-isoxazol-3-yl-4-oxobutoxy)ethyl]-1-methylazetidine-3-carboxamide] and `CN(C)CC(=O)N[C@@H](COCCCC(=O)c1ccon1)c1[nH]c(-c2ccc(F)cc2)nc1Cl` [Compound 17, N-[(1R)-1-[4-chloro-2-(4-fluorophenyl)-1H-imidazol-5-yl]-2-(4-isoxazol-3-yl-4-oxobutoxy)ethyl]-N~2~,N~2~- dimethylglycinamide] cannot be ordered by IC50: > 0.9 µM for the first, > 0.9 µM for the second.

Compared with `CCC(=O)CCCOC[C@H](NC(=O)[C@H]1CC12CCN(CC)CC2)c1ncc(-c2cc3ccccc3nc2OC)[nH]1` [Compound 7, (1S)-6-ethyl-N-{(1R)-1-[5-(2-methoxyquinolin-3-yl)-1H-imidazol-2-yl]-2-[(4-oxohexyl)oxy]ethyl}-6-azaspiro[2.5]octane-1-carboxamide], `COc1nc2ccccc2cc1-c1cnc([C@H](COCCCC(=O)c2ncco2)NC(=O)[C@H]2CC23CCN(C)CC3)[nH]1` [Compound 11, (1S)-N-{(1R)-1-[5-(2-methoxyquinolin-3-yl)-1H-imidazol-2-yl]-2-[4-(1,3-oxazol-2-yl)-4-oxobutoxy]ethyl}-6-methyl-6-azaspiro[2.5]octane-1-carboxamide] is higher in IC50: 19 µM for the first, > 45 µM for the second.

`COc1nc2ccccc2cc1-c1cnc([C@H](COCCCC(=O)c2ccon2)NC(=O)CN(C)C)[nH]1` [Compound 14, N-{(1R)-2-(4-isoxazol-3-yl-4-oxobutoxy)-1-[5-(2-methoxyquinolin-3-yl)-1H-imidazol-2-yl]ethyl}-N~2~,N~2~- dimethylglycinamide] and `COc1nc2ccccc2cc1-c1cnc([C@H](COCCCC(=O)c2ncco2)NC(=O)CN(C)C)[nH]1` [Compound 13, N-{(1R)-1-[5-(2-methoxyquinolin-3-yl)-1H-imidazol-2-yl]-2-[4-(1,3-oxazol-2-yl)-4-oxobutoxy]ethyl}-N~2~,N~2~- dimethylglycinamide] cannot be ordered by IC50: > 45 µM for the first, > 45 µM for the second.

`COc1nc2ccccc2cc1-c1cnc([C@H](COCCCC(=O)c2ncco2)NC(=O)c2cncs2)[nH]1` [Compound 10, N-{(1R)-1-[5-(2-methoxyquinolin-3-yl)-1H-imidazol-2-yl]-2-[4-(1,3-oxazol-2-yl)-4-oxobutoxy]ethyl}-1,3-thiazole-5-carboxamide] and `CCC(=O)CCCOC[C@H](NC(=O)c1cncs1)c1ncc(-c2cc3ccccc3nc2OC)[nH]1` [Compound 5, N-{(1R)-1-[5-(2-methoxyquinolin-3-yl)-1H-imidazol-2-yl]-2-[(4-oxohexyl)oxy]ethyl}-1,3-thiazole-5-carboxamide] cannot be ordered by IC50: > 45 µM for the first, > 45 µM for the second.

Going from `COc1cc2nc(C)ccc2cc1-c1cnc([C@H](COCCCC(=O)c2cc(C)on2)NC(=O)[C@H]2CC23CCN(C)CC3)[nH]1` [Compound 20, (1S)-N-{(1R)-1-[5-(7-methoxy-2-methylquinolin-6-yl)-1H-imidazol-2-yl]-2-[4-(5-methylisoxazol-3-yl)-4-oxobutoxy]ethyl}-6-methyl-6-azaspiro[2.5]octane-1-carboxamide] to `COc1cc2nc(C)ccc2cc1-c1cnc([C@H](COCCCC(=O)c2cc(C)on2)NC(=O)C2CN(C)C2)[nH]1` [Compound 19, N-{(1R)-1-[5-(7-methoxy-2-methylquinolin-6-yl)-1H-imidazol-2-yl]-2-[4-(5-methylisoxazol-3-yl)-4-oxobutoxy]ethyl}-1-methylazetidine-3-carboxamide], the IC50 falls from > 0.9 µM to 0.469 µM. The second is the more potent here.

Compared with `CNC(=O)C(=O)CCCOC[C@H](NC(=O)c1cncs1)c1ncc(-c2cc3ccccc3nc2OC)[nH]1` [Compound 8, N-[(1R)-1-[5-(2-methoxyquinolin-3-yl)-1H-imidazol-2-yl]-2-{[5-(methylamino)-4,5-dioxopentyl]oxy}ethyl]-1,3-thiazole-5-carboxamide], `CNC(=O)C(=O)CCCOC[C@H](NC(=O)C12CCN(CC1)CC2)c1ncc(-c2cc3ccccc3nc2OC)[nH]1` [Compound 9, N-[(1R)-1-[5-(2-methoxyquinolin-3-yl)-1H-imidazol-2-yl]-2-{[5-(methylamino)-4,5-dioxopentyl]oxy}ethyl]-1-azabicyclo[2.2.2]octane-4-carboxamide] is higher in IC50: 5.11 µM for the first, > 45 µM for the second. The first is the more potent here.

`CN1CC(C(=O)N[C@@H](COCCCC(=O)c2ccon2)c2ncc(-c3ccccc3F)[nH]2)C1` [Compound 15, N-[(1R)-1-[5-(2-fluorophenyl)-1H-imidazol-2-yl]-2-(4-isoxazol-3-yl-4-oxobutoxy)ethyl]-1-methylazetidine-3-carboxamide] and `Cc1ccc2cc(-c3cnc([C@H](CSCCCC(=O)c4ncco4)NC(=O)[C@H]4CC45CCN(C)CC5)[nH]3)ccc2n1` [Compound 21, (1S)-6-methyl-N-[(1R)-1-[5-(2-methylquinolin-6-yl)-1H-imidazol-2-yl]-2-{[4-(1,3-oxazol-2-yl)-4-oxobutyl]sulfanyl}ethyl]-6-azaspiro[2.5]octane-1-carboxamide] cannot be ordered by IC50: > 0.9 µM for the first, 19.3 µM for the second.
